Assay results as given in patent publication US10258610B2, “Pharmaceutical compositions comprising rifaximin, processes for their preparation and their use in the treatment of vaginal infections” (ALFASIGMA S.P.A., priority 2011, dated 2019).

Tests used:
Atopobium = assay: Vaginal microbiota by quantitative real-time PCR; format: in vivo; conditions: for Target DNA/genomic vaginal DNA, Atopobium / Target DNA/genomic or vaginal DNA, Atopobium: average; for Target DNA/genomic or vaginal DNA, Atopobium: visit V4, patients maintaining recovery
Description: (§1) During the clinical trial, described in Example 12, samples of vaginal cleansing were collected and the composition of vaginal microbiota was determined by means of the quantitative real-time PCR.
(§2) With the real-time PCR the DNA samples are amplified with gender- and/or species-specific primers whose target is the 16S rRNA bacterial gene or the 16S-23 S rRNA region.
(§3) In particular, specific probes were used for the Lactobacillus gender, for Gardnerella vaginalis, for Atopobium, for Prevotella and for Veillonella, since they represent the main bacterial groups suffering from modifications in case of bacterial vaginosis.
(§4) Table 28 reports the values of real-time PCR relating to bacterial genders and species quantified in vaginal cleansings of women belonging to the different treatment groups, expressed as total target DNA ng/genomic DNA μg, for microbial species tested for each group at the visit V3 if compared to the visit V1.
(§5) The composition of vaginal microbiota was determined by means of the quantitative real-time PCR technique of patients maintaining their recovery at the visit V4, 30-40 days after the end of the therapy, and the DNA samples amplified with gender- and/or species-specific primers were evaluated by means of the real-time PCR technique.
(§6) Table 29 reports the values of real-time PCR relating to target bacterial genders and species quantified in vaginal rinses of women belonging to the different treatment groups, expressed as total target DNA ng/genomic DNA μg, for microbial species tested for each group at the visit V4 when compared to the values observed at the visit V1 of all treated patients.

Gardnerella vaginalis = assay: Vaginal microbiota by quantitative real-time PCR; format: in vivo; conditions: for Target DNA/genomic vaginal DNA, Gardnerella vaginalis / Target DNA/genomic or vaginal DNA, Gardnerella vaginalis: average; for Target DNA/genomic or vaginal DNA, Gardnerella vaginalis: visit V4, patients maintaining recovery
Description: as §1, §2, §3, §4, §5, §6

Lactobacillus = assay: Vaginal microbiota by quantitative real-time PCR; format: in vivo; conditions: for Target DNA/genomic vaginal DNA, Lactobacillus / Target DNA/genomic or vaginal DNA, Lactobacillus: average; for Target DNA/genomic or vaginal DNA, Lactobacillus: visit V4, patients maintaining recovery; for increase of Lactobacilli concentration: visit V4
Description: as §1, §2, §3, §4, §5, §6

Prevotella = assay: Vaginal microbiota by quantitative real-time PCR; format: in vivo; conditions: for Target DNA/genomic vaginal DNA, Prevotella / Target DNA/genomic or vaginal DNA, Prevotella: average; for Target DNA/genomic or vaginal DNA, Prevotella: visit V4, patients maintaining recovery
Description: as §1, §2, §3, §4, §5, §6

Veillonella = assay: Vaginal microbiota by quantitative real-time PCR; format: in vivo; conditions: average; for Target DNA/genomic or vaginal DNA, Veillonella: visit V4, patients maintaining recovery
Description: as §1, §2, §3, §4, §5, §6

vaginal microbiota = assay: Vaginal microbiota by PCR-DGGE (cluster analysis, Similarity Index, Richness Index); format: in vivo, human; design: key to Similarity Index V1-V3 / Similarity Index V1-V4 / Similarity Index V3-V4 / Similarity Index V1-V3-V4: % similarity between DGGE profiles (Pearson correlation)
Description: During the clinical trial samples of vaginal rinses were taken, and the composition of vaginal microbiota was determined by means of the PCR-DGGE technique, allowing the identification of various bacterial DNA through an electrophoretic process and a DNA amplification with universal primers for the bacterial 16S rRNA region. The result of this technique was a sequence of visible bands, called clusters, wherein each of them is representative for the DNA of bacterial species present in the considered sample. The analysis of clusters of DGGE profiles of samples, carried out by using the FPQuest software (Bio-Rad) gives the information relating to the similarity of two samples. In the specific case wherein the recovery is intended as reduction of pathogenic species, it is positive that the sample of a patient after treatment is quite different from the sample of the same patient before treatment. The analysis was carried out with vaginal samples at the visits V1, V3 and V4 for the four groups A, B, C and D of treated patients. In order to evaluate the pharmacological action of the examined rifaximin preparations, different treatment groups were compared through the so called Similarity Indexes (SI). The analysis consists in evaluating the similarity of electrophoretic profiles calculated on the basis of the Pearson correlation coefficient. In the examined case, SI indicates the percent similarity between two or more DGGE profiles belonging to the same person at the different visits. Another adopted criterion of evaluation of the samples is the so called Richness Index (RI). This criterion, based on the bands of each DGGE profile, gives the measure of the complexity of the bacterial population, which is a sign of disease for the occurrence of new pathogenic species. Table 32 reports the RI average values, measured at the visits V1 and V3.

[1] = all groups treated with rifaximin, compared to placebo
[2] = visit V1 (before therapy), Group A: 1 tablet 100 mg × 5 days
[3] = visit V1 (before therapy), Group B: 1 tablet 25 mg × 5 days
[4] = visit V1 (before therapy), Group C: 1 tablet 100 mg × 2 days
[5] = visit V3, Group A: 1 tablet 100 mg × 5 days
[6] = visit V3, Group B: 1 tablet 25 mg × 5 days
[7] = visit V3, Group C: 1 tablet 100 mg × 2 days
[8] = Group A: 1 tablet 100 mg × 5 days
[9] = Group B: 1 tablet 25 mg × 5 days
[10] = Group C: 1 tablet 100 mg × 2 days

CO[C@H]1/C=C/O[C@@]2(C)Oc3c(C)c(O)c4c(O)c(c5c(nc6cc(C)ccn65)c4c3C2=O)NC(=O)/C(C)=C\C=C\[C@H](C)[C@H](O)[C@@H](C)[C@@H](O)[C@@H](C)[C@H](OC(C)=O)[C@@H]1C [Rifaximin]
change of Atopopium concentration by real-time PCR (Atopobium; [1]): reduction | Target DNA/genomic vaginal DNA, Atopobium (Atopobium; [2]): 93.07 ng/µg | Target DNA/genomic vaginal DNA, Atopobium (Atopobium; [3]): 108.2 ng/µg | Target DNA/genomic vaginal DNA, Atopobium (Atopobium; [4]): 170.4 ng/µg | Target DNA/genomic vaginal DNA, Atopobium (Atopobium; [5]): 61.46 ng/µg | Target DNA/genomic vaginal DNA, Atopobium (Atopobium; [6]): 48.8 ng/µg | Target DNA/genomic vaginal DNA, Atopobium (Atopobium; [7]): 59.99 ng/µg | Target DNA/genomic or vaginal DNA, Atopobium (Atopobium; [8]): 5.348 ng/µg | Target DNA/genomic or vaginal DNA, Atopobium (Atopobium; [9]): 28.25 ng/µg | Target DNA/genomic or vaginal DNA, Atopobium (Atopobium; [10]): 139.9 ng/µg | change of Gardnerella vaginalis concentration by real-time PCR (Gardnerella vaginalis; [1]): reduction | Target DNA/genomic vaginal DNA, Gardnerella vaginalis (Gardnerella vaginalis; [2]): 34.92 ng/µg | Target DNA/genomic vaginal DNA, Gardnerella vaginalis (Gardnerella vaginalis; [3]): 119.4 ng/µg | Target DNA/genomic vaginal DNA, Gardnerella vaginalis (Gardnerella vaginalis; [4]): 66.74 ng/µg | Target DNA/genomic vaginal DNA, Gardnerella vaginalis (Gardnerella vaginalis; [5]): 23.56 ng/µg | Target DNA/genomic vaginal DNA, Gardnerella vaginalis (Gardnerella vaginalis; [6]): 66.26 ng/µg | Target DNA/genomic vaginal DNA, Gardnerella vaginalis (Gardnerella vaginalis; [7]): 29.44 ng/µg | Target DNA/genomic or vaginal DNA, Gardnerella vaginalis (Gardnerella vaginalis; [8]): 3.067 ng/µg | Target DNA/genomic or vaginal DNA, Gardnerella vaginalis (Gardnerella vaginalis; [9]): 17.57 ng/µg | Target DNA/genomic or vaginal DNA, Gardnerella vaginalis (Gardnerella vaginalis; [10]): 75.09 ng/µg | change of Lactobacilli by real-time PCR (Lactobacillus; all groups treated with rifaximin): Lactobacilli increase | Target DNA/genomic vaginal DNA, Lactobacillus (Lactobacillus; [2]): 16.83 ng/µg | Target DNA/genomic vaginal DNA, Lactobacillus (Lactobacillus; [3]): 10.06 ng/µg | Target DNA/genomic vaginal DNA, Lactobacillus (Lactobacillus; [4]): 12.66 ng/µg | Target DNA/genomic vaginal DNA, Lactobacillus (Lactobacillus; [5]): 20.09 ng/µg | Target DNA/genomic vaginal DNA, Lactobacillus (Lactobacillus; [6]): 33.78 ng/µg | Target DNA/genomic vaginal DNA, Lactobacillus (Lactobacillus; [7]): 25.36 ng/µg | Target DNA/genomic or vaginal DNA, Lactobacillus (Lactobacillus; [8]): 21.3 ng/µg | Target DNA/genomic or vaginal DNA, Lactobacillus (Lactobacillus; [9]): 39.57 ng/µg | Target DNA/genomic or vaginal DNA, Lactobacillus (Lactobacillus; [10]): 8.959 ng/µg | increase of Lactobacilli concentration (Lactobacillus; group A: tablet 100 mg rifaximin for five days): twentyfold | increase of Lactobacilli concentration (Lactobacillus; group B: tablet 25 mg rifaximin for five days): fortyfold | increase of Lactobacilli concentration (Lactobacillus; group C: tablet 100 mg rifaximin for two days): eightfold | change of Prevotella concentration by real-time PCR (Prevotella; [1]): reduction | Target DNA/genomic vaginal DNA, Prevotella (Prevotella; [2]): 18.8 ng/µg | Target DNA/genomic vaginal DNA, Prevotella (Prevotella; [3]): 18.47 ng/µg | Target DNA/genomic vaginal DNA, Prevotella (Prevotella; [4]): 17.91 ng/µg | Target DNA/genomic vaginal DNA, Prevotella (Prevotella; [5]): 12.2 ng/µg | Target DNA/genomic vaginal DNA, Prevotella (Prevotella; [6]): 3.712 ng/µg | Target DNA/genomic vaginal DNA, Prevotella (Prevotella; [7]): 7.248 ng/µg | Target DNA/genomic or vaginal DNA, Prevotella (Prevotella; [8]): 0.04296 ng/µg | Target DNA/genomic or vaginal DNA, Prevotella (Prevotella; [9]): 2.345 ng/µg | Target DNA/genomic or vaginal DNA, Prevotella (Prevotella; [10]): 54 ng/µg | Target DNA/genomic vaginal DNA, Veillonella (Veillonella; [2]): 0.04128 ng/µg | Target DNA/genomic vaginal DNA, Veillonella (Veillonella; [3]): 0.03492 ng/µg | Target DNA/genomic vaginal DNA, Veillonella (Veillonella; [4]): 0.2214 ng/µg | Target DNA/genomic vaginal DNA, Veillonella (Veillonella; [5]): 0.007807 ng/µg | Target DNA/genomic vaginal DNA, Veillonella (Veillonella; [6]): 0.01761 ng/µg | Target DNA/genomic vaginal DNA, Veillonella (Veillonella; [7]): 0.005642 ng/µg | Target DNA/genomic or vaginal DNA, Veillonella (Veillonella; [8]): 0 ng/µg | Target DNA/genomic or vaginal DNA, Veillonella (Veillonella; [9]): 0 ng/µg | Target DNA/genomic or vaginal DNA, Veillonella (Veillonella; [10]): 0.2748 ng/µg | Percent of patients with clusterizing profiles, V1 vs. V3 (vaginal microbiota; [8]): 37% | Percent of patients with clusterizing profiles, V1 vs. V3 vs. V4 (vaginal microbiota; [8]): 0% | Similarity Index V1-V3 (vaginal microbiota; [8]): 61.6 | Similarity Index V1-V3-V4 (vaginal microbiota; [8]): 50.8 | Similarity Index V1-V4 (vaginal microbiota; [8]): 52.1 | Similarity Index V3-V4 (vaginal microbiota; [8]): 66.8 | Percent of patients with clusterizing profiles, V1 vs. V3 (vaginal microbiota; [9]): 24% | Percent of patients with clusterizing profiles, V1 vs. V3 vs. V4 (vaginal microbiota; [9]): 0% | Similarity Index V1-V3 (vaginal microbiota; [9]): 48.4 | Similarity Index V1-V3-V4 (vaginal microbiota; [9]): 36.4 | Similarity Index V1-V4 (vaginal microbiota; [9]): 40.0 | Similarity Index V3-V4 (vaginal microbiota; [9]): 62.1 | Percent of patients with clusterizing profiles, V1 vs. V3 (vaginal microbiota; [10]): 28% | Percent of patients with clusterizing profiles, V1 vs. V3 vs. V4 (vaginal microbiota; [10]): 11% | Similarity Index V1-V3 (vaginal microbiota; [10]): 54.0 | Similarity Index V1-V3-V4 (vaginal microbiota; [10]): 37.6 | Similarity Index V1-V4 (vaginal microbiota; [10]): 47.1 | Similarity Index V3-V4 (vaginal microbiota; [10]): 42.8 | Richness Index (vaginal microbiota; [2]): 13.5 | Richness Index (vaginal microbiota; [3]): 14.0 | Richness Index (vaginal microbiota; [4]): 15.4 | Richness Index (vaginal microbiota; [5]): 10.9 | Richness Index (vaginal microbiota; [6]): 10.7 | Richness Index (vaginal microbiota; [7]): 12.2
